In PubChem BioAssay (NCI):
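A five-concentration, 48-hour dose response in 96-well plates underlies each endpoint, interpolated linearly between surrounding concentrations. GI50 marks 50% less growth. Definition used: TGI = concentration required for complete inhibition of growth.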

Legend:
Assay in all cases: NCI anticancer screen, dose series, 48 h
CCRF-CEM leukemia = test system: CCRF-CEM leukemia
COLO 205 colon = test system: COLO 205 colon
HT29 colon = test system: HT29 colon
M14 melanoma = test system: M14 melanoma
NCI-H460 lung = test system: NCI-H460 lung
OVCAR-5 ovarian = test system: OVCAR-5 ovarian
SF-539 CNS = test system: SF-539 CNS
U251 CNS = test system: U251 CNS
OVCAR-4 ovarian = test system: OVCAR-4 ovarian
DU-145 prostate = test system: DU-145 prostate

| SMILES | TGI (CCRF-CEM leukemia) | TGI (COLO 205 colon) | TGI (HT29 colon) | TGI (M14 melanoma) | TGI (NCI-H460 lung) | TGI (OVCAR-5 ovarian) | TGI (SF-539 CNS) | TGI (U251 CNS) | TGI (OVCAR-4 ovarian) | GI50 (CCRF-CEM leukemia) | GI50 (COLO 205 colon) | GI50 (DU-145 prostate) | TGI (DU-145 prostate) | GI50 (M14 melanoma) | GI50 (NCI-H460 lung) | GI50 (OVCAR-5 ovarian) | GI50 (SF-539 CNS) | GI50 (HT29 colon) | GI50 (OVCAR-4 ovarian) | GI50 (U251 CNS) |
| --- | --- | --- | --- | --- | --- | --- | --- | --- | --- | --- | --- | --- | --- | --- | --- | --- | --- | --- | --- | --- |
| O=C(CCc1cc(-c2ccc(F)cc2)n[nH]1)N(Cc1ccccc1)Cc1ccccc1 | > 100 µM | > 100 µM | > 100 µM | > 100 µM | > 100 µM | > 100 µM | > 100 µM | > 100 µM | – | – | – | – | – | – | – | – | – | – | – | – |
| COc1cc(CCc2ccncc2)cc(OC)c1OC | > 100 µM | > 100 µM | > 100 µM | > 100 µM | > 100 µM | > 100 µM | > 100 µM | > 100 µM | > 100 µM | – | – | – | – | – | – | – | – | – | – | – |
| O=C1C(=Cc2ccc(F)cc2)C(=O)c2ccccc21 | > 100 µM | > 100 µM | > 100 µM | > 100 µM | > 100 µM | > 100 µM | > 100 µM | > 100 µM | > 100 µM | – | – | – | – | – | – | – | – | – | – | – |
| COc1ccc2c(c1)C=CC1C2CC[C@]2(C)C(NC(=O)/C=C/c3ccc(O)c(O)c3)CCC12 (stereo not given in full) | 19.5 µM | 7.75 µM | – | 30.8 µM | 14.4 µM | 38.9 µM | 43.5 µM | – | – | 4.36 µM | 2.61 µM | 16.1 µM | 39.6 µM | 13.7 µM | 3.93 µM | 20.1 µM | 18.6 µM | – | – | – |
| CN1CCN(c2nc3cc(F)ccc3n3cccc23)CC1 | > 100 µM | > 100 µM | 87.6 µM | 34.5 µM | 43 µM | > 100 µM | 79.2 µM | > 100 µM | > 100 µM | – | – | – | – | – | – | – | – | – | – | – |
| CC1/C(=N/O)CC(c2ccccc2)N(N=O)C1c1ccccc1 (stereo not given) | > 100 µM | > 100 µM | > 100 µM | > 100 µM | > 100 µM | – | > 100 µM | > 100 µM | > 100 µM | – | – | – | > 100 µM | – | – | – | – | – | – | – |
| C1CC[N-]CC1.CC(=N\O)/C(C)=N/O.CC(=N\O)/C(C)=N/O.C[CH-]C(C)O.[Co+2] | – | 29 µM | > 100 µM | 45.1 µM | 30.5 µM | > 100 µM | 94.4 µM | 31.5 µM | > 100 µM | – | 14.9 µM | 81.1 µM | > 100 µM | 20.8 µM | 16.8 µM | 35.1 µM | 24 µM | 34.3 µM | 33.1 µM | 17.7 µM |
| Cc1c(Cl)cccc1NC(=O)C(=O)c1c(O)c2ccc(O)cc2oc1=O | > 100 µM | > 100 µM | > 100 µM | > 100 µM | > 100 µM | > 100 µM | > 100 µM | > 100 µM | > 100 µM | – | – | – | – | – | – | – | – | – | – | – |
| CCCC(=O)OC(OC(=O)CCC)c1ccc([N+](=O)[O-])o1 | > 100 µM | 54.9 µM | 42.8 µM | 47.8 µM | > 100 µM | 39.6 µM | > 100 µM | > 100 µM | – | – | – | – | > 100 µM | – | – | – | – | – | – | – |
| CC(=O)[O][Hg][c]1s[c]([Hg][O]C(C)=O)[c]([Hg][O]C(C)=O)[c]1[Hg][O]C(C)=O | > 100 µM | 38.6 µM | > 100 µM | 14 µM | > 100 µM | – | – | – | 87.7 µM | 1.18 µM | 15.9 µM | – | – | 1.98 µM | 2.35 µM | – | – | 19.5 µM | 12.7 µM | – |
| Oc1ccc(O)c(-n2cccn2)c1-n1cccn1 | > 10 µM | 90.1 µM | > 100 µM | > 100 µM | > 100 µM | > 100 µM | > 100 µM | > 100 µM | > 100 µM | – | – | – | – | – | – | – | – | – | – | – |
| C=CCO[C@H]1CC[C@@]2(C)C(CC[C@]3(C)C2CC=C2[C@@H]4[C@@H](C)C(C)CC[C@]4(C(=O)O)CCC23C)C1(C)C (stereo not given in full) | 28.9 µM | 32.4 µM | 31.6 µM | 34.6 µM | 36.3 µM | – | 34.1 µM | 30.3 µM | 39.3 µM | – | – | – | – | – | – | – | – | – | – | – |
| Cc1ccc(C)c(NC(=O)C(=O)Nn2c(=S)[nH]c3ccccc3c2=O)c1 | > 100 µM | > 100 µM | > 100 µM | > 100 µM | > 100 µM | > 100 µM | > 100 µM | > 100 µM | > 100 µM | – | – | – | – | – | – | – | – | – | – | – |
| N#C/C(=C1\OC(N)=C(c2ccc(Cl)cc2)C1=O)c1ccc(Cl)cc1 | 73.5 µM | 32.8 µM | 39.5 µM | 29.8 µM | 34 µM | 9.74 µM | 27.6 µM | 29.1 µM | 32 µM | – | – | – | – | – | – | – | – | – | – | – |
| CC/C(C)=C1\CCC(CN(C)C)C1=O (stereo not given) | 39.8 µM | – | 46.5 µM | 33.6 µM | 33.4 µM | 33.6 µM | 32.7 µM | – | 32 µM | – | – | – | – | – | – | – | – | – | – | – |
| CN1C/C(=C\c2ccc(C(=O)O)cc2)C(=O)/C(=C/c2ccc(C(=O)O)cc2)C1 | > 100 µM | > 100 µM | > 100 µM | > 100 µM | > 100 µM | > 100 µM | > 100 µM | > 100 µM | > 100 µM | – | – | – | – | – | – | – | – | – | – | – |
| C=Cc1cc(OC)c2c(c1)c(=O)oc1c2cc(OC)c2c(O)ccc(C3OC(C(C)O)C(O)C3O)c21 (stereo not given) | 0.0312 µM | 0.102 µM | > 1 µM | 0.0302 µM | 0.166 µM | 0.0969 µM | 0.0527 µM | – | 0.703 µM | 0.00245 µM | 0.0113 µM | – | – | 0.011 µM | 0.00573 µM | 0.00309 µM | 0.0146 µM | 0.00666 µM | 0.053 µM | – |
| c1ccc(-c2cc3n4c(-c5ccccc5)nn(-c5ccccc5)c4cnc-3n2)cc1 | > 50 µM | – | > 50 µM | > 50 µM | – | > 50 µM | > 50 µM | > 50 µM | > 50 µM | > 50 µM | – | – | – | > 50 µM | – | > 50 µM | 13.7 µM | > 50 µM | 31.3 µM | 7.85 µM |
| O/N=C1\C(=C\c2ccc3c(c2)OCCO3)CCCC1C(NO)c1ccc2c(c1)OCCO2 (stereo not given) | 48.9 µM | 98.4 µM | 32.3 µM | 34.4 µM | 51.3 µM | > 100 µM | 26.8 µM | 42.2 µM | > 100 µM | – | – | – | – | – | – | – | – | – | – | – |
| C/C(=N\Nc1n[nH]c(=S)n1N)c1c(O)cc(C)oc1=O | > 100 µM | – | > 100 µM | > 100 µM | > 100 µM | – | > 100 µM | > 100 µM | > 100 µM | – | – | – | – | – | – | – | – | – | – | – |
| Cc1ccc([N+]2=NC(c3ccccc3)=NN(c3ccccc3)C2)cc1 | 79.9 µM | > 100 µM | > 100 µM | – | > 100 µM | > 100 µM | – | > 100 µM | > 100 µM | – | – | – | – | – | – | – | – | – | – | – |
